Data as given in US20040024024A1, “Aromatic sulfone hydroxamates and their use as protease inhibitors” (priority 2001, published 2004).
Where “and” joins values, the source holds several entries; their conditions need not be identical. Identical values can stand only once. Counter-ions that a name gives are not always drawn.

Experiments:
Format in all cases: biochemical
[1] = biological target: T1, Human recombinant MMP-9 (Homo sapiens, UniProt P14780); test: In vitro MMP inhibition, IC50 determination (fluorogenic substrate I); conditions: substrate (I) 4 μM, room temperature; values not in parenthesis
T1 construct: made in house; host or cells: MMP-9-transfected HT1080 cells (spent media)
T1 sequence (P14780 107-707 limits assumed): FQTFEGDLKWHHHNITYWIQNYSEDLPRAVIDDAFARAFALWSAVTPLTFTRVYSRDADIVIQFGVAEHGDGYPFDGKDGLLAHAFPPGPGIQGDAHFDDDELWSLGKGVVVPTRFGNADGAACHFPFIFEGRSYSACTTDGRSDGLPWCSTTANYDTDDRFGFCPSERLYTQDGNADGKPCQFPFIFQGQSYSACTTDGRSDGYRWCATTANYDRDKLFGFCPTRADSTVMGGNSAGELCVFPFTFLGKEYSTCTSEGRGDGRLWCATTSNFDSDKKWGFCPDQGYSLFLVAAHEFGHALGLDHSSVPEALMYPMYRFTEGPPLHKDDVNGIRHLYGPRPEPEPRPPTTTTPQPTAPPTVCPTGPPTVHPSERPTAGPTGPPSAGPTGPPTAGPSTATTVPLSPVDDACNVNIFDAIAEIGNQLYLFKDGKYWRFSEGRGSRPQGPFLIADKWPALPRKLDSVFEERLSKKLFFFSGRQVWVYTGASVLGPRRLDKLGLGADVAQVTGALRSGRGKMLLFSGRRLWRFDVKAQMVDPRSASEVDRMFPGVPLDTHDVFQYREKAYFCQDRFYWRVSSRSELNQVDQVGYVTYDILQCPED
How it was run: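 Reduction in fluorescence (328 nm excitation, 415 nm emission) from cleavage of 4 μM quenched peptide substrate I, measured at room temperature against inhibitor concentration, gave IC50. Enzyme: trypsin- or APMA-activated MMP-9 purified from transfected HT1080 medium; buffer 100 mM Tris, 100 mM NaCl, 10 mM CaCl2, pH 7.5.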

[2] = biological target: T1, Human recombinant MMP-9; test: In vitro MMP inhibition, Ki determination (fluorogenic substrate II)
Protocol: Several hydroxamates and salts thereof were analyzed in in vitro assays to determine their ability to inhibit the MMP cleavage of peptide substrates. Inhibition (Ki) and IC50 constants were calculated from the assayed hydroxamate-MMP interactions.
Human recombinant MMP-1, MMP-2, MMP-9, MMP-13, and MMP-14 were used in this assay. All enzymes were prepared in Assignee's laboratories following usual laboratory procedures. Protocols for the preparation and use of these enzymes are available in the scientific literature. See, e.g., Enzyme Nomenclature (Academic Press, San Diego, Calif., 1992) (and the citations therein). See also, Frije et al., J. Biol. Chem., 26(24), 16766-73 (1994).
The MMP-9 proenzyme was purified by gelatin Sepharose chromatography from spent media of MMP-9-transfected HT1080 cells provided by Dr. Howard Welgus of Washington University (St. Louis, Mo.).
All MMPs were activated using 4-aminophenylmercuric acetate (“APMA”, Sigma Chemical, St. Louis, Mo.) or trypsin. MMP-9 also was activated using human recombinant MMP-3 (purified in Assignee's laboratory following standard cloning and purification techniques).
Two fluorogenic, methoxycoumarin-containing polypeptide substrates were used in the MMP inhibition assays:
MCA-ArgProLeuGlyLeuDpaAlaArgGluArgNH2 (II)
Here, “Dpa” is 3-(2,4-dinitrophenyl)-L-2,3-diaminopropionyl group, and “MCA” is 7-methoxycoumarin-4-yl acetyl. Substrate (I) was purchased from Baychem (Redwood City, Calif.), and substrate II was prepared Assignee's laboratory. Substrate I was used in the IC50 determination assays, while substrate II was used in the Ki determination assays. In the absence of MMP inhibitory activity, either substrate is cleaved at the Gly-Leu peptide bond. This cleavage separates the highly fluorogenic peptide from the 2,4-dinitrophenyl quencher, thus resulting in increase of fluorescent intensity.
The stock solutions of the assayed hydroxamates (or salts thereof) were prepared in 1% dimethyl sulfoxide (DMSO). These stock solutions were diluted in Buffer A (100 mM Tris-HCl, 100 mM NaCl, 10 mM CaCl2, 0.05% polyoxyethylene 23 lauryl ether, pH 7.5) to obtain solutions with different hydroxamate concentrations, i.e., assay solutions with different concentrations of the assayed MMP inhibitory compound. The experiment controls contained the same amount of Buffer A/DMSO as the assayed sample, but contained no hydroxamate (or salt thereof).
The assays from which the Ki determinations were made were performed as follows. The assayed hydroxamate samples were incubated in separate wells of untreated white polystyrene plates (Nunc Nalgene International, Rochester, N.Y.), and analyzed on a Tecan SpectraFlour Plus plate reader. The excitation wavelength was 330 nm, and the emission wavelength—420 nm. All samples (assayed hydroxamates and controls) were incubated in separate plate wells at room temperature for 1 hr in the presence of 4 μM of MMP substrate (II). In the absence of MMP inhibitory activity, substrate II was cleaved at the Gly-Leu bond resulting in an increase of relative fluorescence. Inhibition was observed as a reduced rate of this increase in relative fluorescence. The various hydroxamates were analyzed using a single low enzyme concentration with a single substrate concentration fixed at or below the Km. This protocol is a modification of method by Knight et al., FEBS Lett., 296(3), 263-266 (1992). Apparent inhibitory constants were determined by non-linear regression of reaction velocity as a function of inhibitor and enzyme concentration using Morrison's equation, as described by Kuzmic, Anal. Biochem. 286, 45-50 (2000). Modifications were made in the non-linear regression method to allow a common control reaction rate and effective enzyme concentration to be shared between all dose-response relationships on a given assay plate. […]

[3] = biological target: T2, Human recombinant MMP-1 (Homo sapiens, UniProt P03956); test: In vitro MMP inhibition, IC50 determination (fluorogenic substrate I)
T2 construct: made in house; host or cells: MMP-1-transfected HT-1080 cells (spent media)
T2 sequence (P03956 100-469): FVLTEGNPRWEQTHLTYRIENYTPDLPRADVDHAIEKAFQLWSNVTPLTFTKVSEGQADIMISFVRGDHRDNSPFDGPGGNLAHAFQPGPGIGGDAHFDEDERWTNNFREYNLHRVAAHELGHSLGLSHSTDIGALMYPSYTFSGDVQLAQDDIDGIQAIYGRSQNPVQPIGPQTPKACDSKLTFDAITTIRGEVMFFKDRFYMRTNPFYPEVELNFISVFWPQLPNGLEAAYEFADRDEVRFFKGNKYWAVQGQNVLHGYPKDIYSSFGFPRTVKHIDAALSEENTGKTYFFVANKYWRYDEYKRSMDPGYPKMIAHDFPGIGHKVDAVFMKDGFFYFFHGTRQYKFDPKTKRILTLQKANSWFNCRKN
How it was run: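 Inhibitor dilutions were made in 100 mM Tris-HCl/100 mM NaCl/10 mM CaCl2 buffer, pH 7.5, and incubated at room temperature with activated proenzyme (from transfected HT-1080 media; APMA or trypsin) and 4 μM quenched methoxycoumarin peptide substrate. Loss of 415 nm fluorescence (328 nm excitation) against concentration gave IC50.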

[4] = substrate (II) 4 μM, 1 hr room temperature, apparent Ki, values in parenthesis
[5] = substrate (I) 4 μM, room temperature, values not in parenthesis

Question: With `O=C(NO)C1(S(=O)(=O)c2ccc(OCCCc3nc(-c4ccc(OC(F)(F)F)cc4)no3)cc2)CCOCC1` [Example 31, tetrahydro-N-hydroxy-4-[[4-[3-[3[4-(trifluoromethoxy)phenyl]-1,2,4-oxadiazol-5-yl]propoxy]phenyl]sulfonyl]-2H-pyran-4-carboxamide] as the molecule, how does the IC50 [1] read?
Answer: 5.65 µM

Question: And the Ki [2, 4]?
Answer: 1.6 µM

Question: What about the IC50 [3, 5] of the same molecule?
Answer: > 10 µM

Question: `O=C(NO)C1(S(=O)(=O)c2ccc(OCCCc3cccc(-c4ccc(F)cc4)c3)cc2)CCOCC1` [Example 39] was tested. Which Ki [2, 4] did it give?
Answer: 2.36 µM

Question: What does the source list for `O=C(NO)C1(S(=O)(=O)c2ccc(OCCc3cccc(-c4ccccn4)c3)cc2)CCOCC1` [Example 40]?
Answer: IC50 [1]: 0.413 µM; Ki [2, 4]: 0.585 µM; IC50 [3, 5]: > 10 µM

Question: How did the IC50 [1] turn out when `CCN1CCC(C(=O)NO)(S(=O)(=O)c2ccc(OCCCc3nc(-c4ccc(OC(F)(F)F)cc4)no3)cc2)CC1` [Example 41, 1-ethyl-N-hydroxy 4-{[4-(3-{3-[4-(trifluoromethoxy)phenyl]-1,2,4-oxadiazol-5-yl}propoxy)phenyl]sulfonyl}piperidine-4-carboxamide Hydrochloride] was run?
Answer: 1.6 µM

Question: And the Ki [2, 4]?
Answer: 1.47 µM

Question: What about the IC50 [3, 5] of the same molecule?
Answer: > 10 µM

Question: Which results are given for `COCCN1CCC(C(=O)NO)(S(=O)(=O)c2ccc(OCCCc3nc(-c4ccc(OC(F)(F)F)cc4)no3)cc2)CC1` [Example 42]?
Answer: IC50 [1]: 0.382 µM; Ki [2, 4]: 0.662 µM; IC50 [3, 5]: > 10 µM

Question: `CCN1CCC(C(=O)NO)(S(=O)(=O)c2ccc(OCCCc3cccc(-c4ccccc4)c3)cc2)CC1` [Example 46] was tested. Which IC50 [1] did it give?
Answer: 1.97 µM

Question: What about the Ki [2, 4] of the same molecule?
Answer: 0.418 µM

Question: What about the IC50 [3, 5] of the same molecule?
Answer: > 10 µM

Question: `COCCN1CCC(C(=O)NO)(S(=O)(=O)c2ccc(OCCCc3cc(-c4ccc(F)cc4F)cs3)cc2)CC1` [Example 47, 4-[(4-{3-[4-(2,4-difluorophenyl)thien-2-l]propoxy}phenyl)sulfonyl]-N-hydroxy-1-(2-methoxyethyl)piperidine-4-carboxamide Hydrochloride] was tested. Which Ki [2, 4] did it give?
Answer: 0.119 µM and 0.309 µM

Question: Which IC50 [1] does the source give for `COCCN1CCC(C(=O)NO)(S(=O)(=O)c2ccc(OCCCn3nnc(-c4ccc(OC(F)(F)F)cc4)n3)cc2)CC1` [Example 48] here?
Answer: 4.45 µM

Question: What about the Ki [2, 4] of the same molecule?
Answer: 0.159 µM

Question: And the IC50 [3, 5]?
Answer: > 10 µM

Question: Which results are given for `O=C(NO)C1(S(=O)(=O)c2ccc(OCCCn3nnc(-c4ccc(OC(F)(F)F)cc4)n3)cc2)CCN(C2CC2)CC1` [Example 49]?
Answer: IC50 [1]: 4.06 µM; Ki [2, 4]: 1.95 µM; IC50 [3, 5]: > 10 µM

Question: Which Ki [2, 4] does the source give for `NC(=O)c1cccc(OCCOc2ccc(S(=O)(=O)C3(C(=O)NO)CCOCC3)cc2)c1` [Example 54] here?
Answer: 0.388 µM

Question: With `O=C(NO)C1(S(=O)(=O)c2ccc(OCCCc3cccc(-c4ccco4)c3)cc2)CCOCC1` [Example 97] as the molecule, how does the Ki ([2]; value in parenthesis) read?
Answer: 0.473 µM

Question: For `O=C1Nc2ccc(-c3noc(CCCOc4ccc(S(=O)(=O)C5(C(=O)NO)CCN(C6CC6)CC5)cc4)n3)cc21` [Example 142], which Ki ([2]; value in parenthesis) is on record?
Answer: 0.31 µM

Question: How did the Ki ([2]; value in parenthesis) turn out when `O=C(NO)C1(S(=O)(=O)c2ccc(OCCCc3cccc(-c4ccc(OC(F)(F)F)cc4)c3)cc2)CCOCC1` [Example 147] was run?
Answer: 7.97 µM

Question: With `O=C(NO)C1(S(=O)(=O)c2ccc(OCCCc3cccc(-c4ccccn4)c3)cc2)CCOCC1` [Example 148] as the molecule, how does the Ki ([2]; value in parenthesis) read?
Answer: 0.427 µM

Question: With `O=C(NO)C1(S(=O)(=O)c2ccc(OCCCc3cccc(-c4ccncc4)c3)cc2)CCOCC1` [Example 149] as the molecule, how does the Ki ([2]; value in parenthesis) read?
Answer: 0.0945 µM

Question: Which results are given for `CC(C)c1ccc(-c2cccc(CCCOc3ccc(S(=O)(=O)C4(C(=O)NO)CCOCC4)cc3)c2)cc1` [Example 160]?
Answer: Ki ([2]; value in parenthesis): > 10 µM; IC50 ([3]; value outside parenthesis): > 10 µM

Question: How did the Ki ([2]; value in parenthesis) turn out when `O=C(NO)C1(S(=O)(=O)c2ccc(OCCCc3cccc(-c4ccccc4Cl)c3)cc2)CCOCC1` [Example 162] was run?
Answer: 3.15 µM
